This is an account of results in ChEMBL document CHEMBL5212743, “Selectivity Literature for EUbOPEN Chemogenomics Library wave 3” (2023).

Assay [1] concerns the target Serine/threonine-protein kinase RIO3 (Homo sapiens) (UniProt O14730). The assay can be described thus: Selectivity interaction (Ambit kinase binding assay panel) EUB0000609a RIOK3. To be noted: at 10 µM.
Assay [2] deals with T1, Dual specificity protein kinase CLK1 (Homo sapiens, UniProt P49759). The experiment in a line: Selectivity interaction (Ambit kinase binding assay panel) EUB0000609a CLK1. The conditions noted are these: at 10 µM.
Assay [3] has as its target T1, Dual specificity protein kinase CLK1. The experiment in a line: Selectivity interaction (Enzymatic assay) EUB0000609a CLK1.
Assay [4] addresses T2, Mitogen-activated protein kinase 1 (Homo sapiens, UniProt P28482). The experiment in a line: Selectivity interaction (Ambit kinase binding assay panel) EUB0000609a MAPK1. To be noted: at 10 µM.
Assay [5] concerns the target T2, Mitogen-activated protein kinase 1. The assay can be described thus: Selectivity interaction (Enzymatic assay) EUB0000609a MAPK1.
The target of assay [6] is Mitogen-activated protein kinase 8 (Homo sapiens, UniProt P45983). The experiment in a line: Selectivity interaction (Ambit kinase binding assay panel) EUB0000609a MAPK8. To be noted: at 10 µM.
In assay [7] the target is T3, Cyclin-G-associated kinase (Homo sapiens) (UniProt O14976).
T3 sequence (whole entry): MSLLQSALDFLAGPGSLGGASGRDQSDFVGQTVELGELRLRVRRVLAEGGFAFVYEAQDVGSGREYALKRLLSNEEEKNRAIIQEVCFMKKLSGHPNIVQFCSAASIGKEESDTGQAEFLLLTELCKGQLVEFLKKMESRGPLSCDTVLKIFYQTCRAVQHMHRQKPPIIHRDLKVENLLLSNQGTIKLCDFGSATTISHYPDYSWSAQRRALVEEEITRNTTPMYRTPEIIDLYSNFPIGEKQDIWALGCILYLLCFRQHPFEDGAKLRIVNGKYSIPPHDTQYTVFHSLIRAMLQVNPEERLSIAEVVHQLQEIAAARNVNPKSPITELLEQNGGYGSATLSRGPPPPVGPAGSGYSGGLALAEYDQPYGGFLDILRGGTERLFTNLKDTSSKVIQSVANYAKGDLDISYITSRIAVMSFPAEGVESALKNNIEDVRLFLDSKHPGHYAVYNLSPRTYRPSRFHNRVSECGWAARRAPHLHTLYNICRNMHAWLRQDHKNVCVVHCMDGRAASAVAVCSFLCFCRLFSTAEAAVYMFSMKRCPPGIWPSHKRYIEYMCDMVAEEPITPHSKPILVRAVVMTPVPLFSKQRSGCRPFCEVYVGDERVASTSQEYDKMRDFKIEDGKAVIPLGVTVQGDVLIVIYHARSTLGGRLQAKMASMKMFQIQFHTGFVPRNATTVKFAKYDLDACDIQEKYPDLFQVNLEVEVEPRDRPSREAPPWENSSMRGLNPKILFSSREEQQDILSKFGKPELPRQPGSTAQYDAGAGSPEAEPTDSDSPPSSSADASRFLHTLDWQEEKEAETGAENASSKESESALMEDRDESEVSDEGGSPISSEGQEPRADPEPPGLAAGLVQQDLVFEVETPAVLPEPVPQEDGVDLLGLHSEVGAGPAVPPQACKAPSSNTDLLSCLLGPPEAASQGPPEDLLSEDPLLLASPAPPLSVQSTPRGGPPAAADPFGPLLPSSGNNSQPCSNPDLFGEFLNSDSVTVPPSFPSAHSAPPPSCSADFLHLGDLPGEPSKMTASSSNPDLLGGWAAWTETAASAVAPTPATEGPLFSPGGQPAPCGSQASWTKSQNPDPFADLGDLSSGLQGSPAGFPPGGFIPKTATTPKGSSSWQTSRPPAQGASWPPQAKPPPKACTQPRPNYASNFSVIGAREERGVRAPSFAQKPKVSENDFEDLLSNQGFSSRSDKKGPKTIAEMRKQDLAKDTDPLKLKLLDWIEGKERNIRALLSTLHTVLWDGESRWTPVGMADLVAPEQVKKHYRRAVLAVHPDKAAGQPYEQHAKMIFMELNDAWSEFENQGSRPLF
The experiment in a line: Selectivity interaction (Ambit kinase binding assay panel) EUB0000609a GAK. The conditions noted are these: at 10 µM.

The target of assay [8] is T4, Cyclin-G-associated kinase (Homo sapiens, UniProt O14976). The experiment in a line: Selectivity interaction (Enzymatic assay) EUB0000609a GAK.
In assay [9] the target is Dual specificity mitogen-activated protein kinase kinase 4 (Homo sapiens) (UniProt P45985). The experiment in a line: Selectivity interaction (Ambit kinase binding assay panel) EUB0000609a MAP2K4. To be noted: at 10 µM.
The target of a further assay is Activated CDC42 kinase 1 (Homo sapiens, UniProt Q07912). The assay can be described thus: Selectivity interaction (Enzymatic assay) EUB0000609a TNK2.
Assay [10] concerns the target Non-receptor tyrosine-protein kinase TNK1 (Homo sapiens, UniProt Q13470). The assay can be described thus: Selectivity interaction (Enzymatic assay) EUB0000609a TNK1.
The target of assay [11] is T5, ALK tyrosine kinase receptor (Homo sapiens, UniProt Q9UM73). The assay can be described thus: Selectivity interaction (Ambit kinase binding assay panel) EUB0000609a ALK. To be noted: at 10 µM.
For assay [12], the target named is T5, ALK tyrosine kinase receptor. The experiment in a line: Selectivity interaction (Enzymatic assay) EUB0000609a ALK.
Assay [13] has as its target T6, Leukocyte tyrosine kinase receptor (Homo sapiens, UniProt P29376). The assay can be described thus: Selectivity interaction (Ambit kinase binding assay panel) EUB0000609a LTK. To be noted: at 10 µM.
Assay [14] has as its target T6, Leukocyte tyrosine kinase receptor. The experiment in a line: Selectivity interaction (Enzymatic assay) EUB0000609a LTK.
The target of a further assay is Focal adhesion kinase 1 (Homo sapiens, UniProt Q05397). The experiment in a line: Selectivity interaction (Enzymatic assay) EUB0000609a PTK2.
In assay [15] the target is T7, Protein-tyrosine kinase 2-beta (Homo sapiens, UniProt Q14289). The experiment in a line: Selectivity interaction (Ambit kinase binding assay panel) EUB0000609a PTK2B. To be noted: at 10 µM.
Assay [16] concerns the target T7, Protein-tyrosine kinase 2-beta. The experiment in a line: Selectivity interaction (Enzymatic assay) EUB0000609a PTK2B.
For assay [17], the target named is T8, Insulin-like growth factor 1 receptor (Homo sapiens, UniProt P08069). The experiment in a line: Selectivity interaction (Ambit kinase binding assay panel) EUB0000609a IGF1R. The conditions noted are these: at 10 µM.
T8 sequence (P08069 31-736 limits assumed): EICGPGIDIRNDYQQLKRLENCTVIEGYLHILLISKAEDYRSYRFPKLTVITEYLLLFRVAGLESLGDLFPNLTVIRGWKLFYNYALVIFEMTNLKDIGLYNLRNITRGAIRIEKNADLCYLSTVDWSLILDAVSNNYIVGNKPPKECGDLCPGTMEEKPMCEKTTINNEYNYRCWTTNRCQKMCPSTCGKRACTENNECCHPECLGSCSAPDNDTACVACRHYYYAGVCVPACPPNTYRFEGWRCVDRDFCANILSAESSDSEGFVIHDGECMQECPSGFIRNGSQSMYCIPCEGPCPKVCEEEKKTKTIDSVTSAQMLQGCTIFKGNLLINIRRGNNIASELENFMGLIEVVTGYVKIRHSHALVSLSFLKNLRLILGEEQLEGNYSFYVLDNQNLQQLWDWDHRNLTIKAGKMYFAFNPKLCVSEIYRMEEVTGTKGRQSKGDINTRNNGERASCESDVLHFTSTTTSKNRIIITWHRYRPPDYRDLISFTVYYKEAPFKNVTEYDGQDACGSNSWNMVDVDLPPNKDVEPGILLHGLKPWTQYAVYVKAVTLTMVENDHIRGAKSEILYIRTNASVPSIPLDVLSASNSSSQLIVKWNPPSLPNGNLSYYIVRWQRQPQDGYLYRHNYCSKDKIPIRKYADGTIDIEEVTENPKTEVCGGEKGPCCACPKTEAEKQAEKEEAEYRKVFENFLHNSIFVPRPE
T8 sequence (P08069 741-1367 limits assumed): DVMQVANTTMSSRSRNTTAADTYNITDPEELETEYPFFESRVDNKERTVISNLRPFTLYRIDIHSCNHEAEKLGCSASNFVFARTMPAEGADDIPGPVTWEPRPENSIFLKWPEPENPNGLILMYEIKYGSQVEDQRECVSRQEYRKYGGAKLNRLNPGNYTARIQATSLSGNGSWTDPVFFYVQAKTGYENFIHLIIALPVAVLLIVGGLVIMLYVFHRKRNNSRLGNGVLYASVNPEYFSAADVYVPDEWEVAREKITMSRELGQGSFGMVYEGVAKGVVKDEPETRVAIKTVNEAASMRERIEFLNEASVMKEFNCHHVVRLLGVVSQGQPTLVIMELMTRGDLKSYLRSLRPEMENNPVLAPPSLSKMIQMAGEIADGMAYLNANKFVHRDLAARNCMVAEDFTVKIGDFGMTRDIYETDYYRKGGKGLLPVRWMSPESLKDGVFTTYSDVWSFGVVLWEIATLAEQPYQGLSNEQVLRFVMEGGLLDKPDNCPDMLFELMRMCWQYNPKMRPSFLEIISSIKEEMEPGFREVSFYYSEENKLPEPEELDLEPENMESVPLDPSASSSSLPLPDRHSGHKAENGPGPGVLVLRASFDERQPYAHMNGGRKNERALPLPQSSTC
Assay [18] addresses T8, Insulin-like growth factor 1 receptor. The assay can be described thus: Selectivity interaction (Enzymatic assay) EUB0000609a IGF1R.
For assay [19], the target named is T9, Insulin receptor (Homo sapiens, UniProt P06213). The experiment in a line: Selectivity interaction (Ambit kinase binding assay panel) EUB0000609a INSR. To be noted: at 10 µM.
T9 sequence (P06213 28-758 limits assumed): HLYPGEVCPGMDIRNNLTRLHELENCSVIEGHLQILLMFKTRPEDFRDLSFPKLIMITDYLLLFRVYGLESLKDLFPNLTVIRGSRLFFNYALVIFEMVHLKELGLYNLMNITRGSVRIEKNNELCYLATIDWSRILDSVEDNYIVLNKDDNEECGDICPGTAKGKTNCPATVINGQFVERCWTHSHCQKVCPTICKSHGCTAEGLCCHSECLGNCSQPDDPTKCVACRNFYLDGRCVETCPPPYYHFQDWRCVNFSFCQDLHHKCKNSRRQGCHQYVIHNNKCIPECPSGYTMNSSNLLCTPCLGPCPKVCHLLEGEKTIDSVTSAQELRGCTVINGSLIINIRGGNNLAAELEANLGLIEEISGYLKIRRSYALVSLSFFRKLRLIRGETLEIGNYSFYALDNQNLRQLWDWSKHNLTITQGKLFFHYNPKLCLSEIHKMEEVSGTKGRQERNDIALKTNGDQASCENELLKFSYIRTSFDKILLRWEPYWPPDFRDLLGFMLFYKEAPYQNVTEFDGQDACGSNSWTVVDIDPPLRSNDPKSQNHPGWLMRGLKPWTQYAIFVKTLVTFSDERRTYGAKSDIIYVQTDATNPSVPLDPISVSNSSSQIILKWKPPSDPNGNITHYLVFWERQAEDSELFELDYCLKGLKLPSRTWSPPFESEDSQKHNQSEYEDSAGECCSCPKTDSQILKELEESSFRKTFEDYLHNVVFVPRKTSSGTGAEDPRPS
T9 sequence (P06213 763-1382 limits assumed): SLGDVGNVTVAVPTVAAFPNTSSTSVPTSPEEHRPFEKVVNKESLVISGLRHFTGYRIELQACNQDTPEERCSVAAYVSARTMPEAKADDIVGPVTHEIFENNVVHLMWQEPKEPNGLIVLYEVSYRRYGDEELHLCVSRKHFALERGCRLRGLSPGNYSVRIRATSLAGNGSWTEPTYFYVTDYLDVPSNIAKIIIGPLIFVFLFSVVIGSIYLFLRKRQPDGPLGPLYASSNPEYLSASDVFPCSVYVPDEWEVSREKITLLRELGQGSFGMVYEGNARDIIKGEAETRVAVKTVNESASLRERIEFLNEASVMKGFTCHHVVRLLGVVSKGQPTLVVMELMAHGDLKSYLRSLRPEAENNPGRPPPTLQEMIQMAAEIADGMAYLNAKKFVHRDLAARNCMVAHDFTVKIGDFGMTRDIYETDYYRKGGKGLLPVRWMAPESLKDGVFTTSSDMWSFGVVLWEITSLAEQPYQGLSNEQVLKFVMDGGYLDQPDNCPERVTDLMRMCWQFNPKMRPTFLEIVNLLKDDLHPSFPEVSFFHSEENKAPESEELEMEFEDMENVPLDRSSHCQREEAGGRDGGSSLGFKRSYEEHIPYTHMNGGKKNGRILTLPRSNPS
Assay [20] deals with T9, Insulin receptor. The assay can be described thus: Selectivity interaction (Enzymatic assay) EUB0000609a INSR.
For assay [21], the target named is T10, Insulin receptor-related protein (Homo sapiens, UniProt P14616). The experiment in a line: Selectivity interaction (Ambit kinase binding assay panel) EUB0000609a INSRR. To be noted: at 10 µM.
In assay [22] the target is T10, Insulin receptor-related protein. The assay can be described thus: Selectivity interaction (Enzymatic assay) EUB0000609a INSRR.
Assay [23] concerns the target Serine/threonine-protein kinase N2 (Homo sapiens) (UniProt Q16513). The experiment in a line: Selectivity interaction (Ambit kinase binding assay panel) EUB0000609a PKN2. To be noted: at 10 µM.
The target of assay [24] is Serine/threonine-protein kinase 33 (Homo sapiens, UniProt Q9BYT3). The experiment in a line: Selectivity interaction (Enzymatic assay) EUB0000608a STK33.
The target of assay [25] is T4, Cyclin-G-associated kinase. The experiment in a line: Selectivity interaction (Enzymatic assay) EUB0000608a GAK.
Assay [26] addresses Serine/threonine-protein kinase PLK1 (Homo sapiens, UniProt P53350). The assay can be described thus: Selectivity interaction (Enzymatic assay) EUB0000608a PLK1.
In assay [27] the target is Serine/threonine-protein kinase PLK3 (Homo sapiens, UniProt Q9H4B4). The experiment in a line: Selectivity interaction (Enzymatic assay) EUB0000608a PLK3.
Assay [28] addresses Serine/threonine-protein kinase PLK4 (Homo sapiens, UniProt O00444). The experiment in a line: Selectivity interaction (Enzymatic assay) EUB0000608a PLK4.

pIC50: −log10 of the molar value.

T6 sequence (P29376 whole entry): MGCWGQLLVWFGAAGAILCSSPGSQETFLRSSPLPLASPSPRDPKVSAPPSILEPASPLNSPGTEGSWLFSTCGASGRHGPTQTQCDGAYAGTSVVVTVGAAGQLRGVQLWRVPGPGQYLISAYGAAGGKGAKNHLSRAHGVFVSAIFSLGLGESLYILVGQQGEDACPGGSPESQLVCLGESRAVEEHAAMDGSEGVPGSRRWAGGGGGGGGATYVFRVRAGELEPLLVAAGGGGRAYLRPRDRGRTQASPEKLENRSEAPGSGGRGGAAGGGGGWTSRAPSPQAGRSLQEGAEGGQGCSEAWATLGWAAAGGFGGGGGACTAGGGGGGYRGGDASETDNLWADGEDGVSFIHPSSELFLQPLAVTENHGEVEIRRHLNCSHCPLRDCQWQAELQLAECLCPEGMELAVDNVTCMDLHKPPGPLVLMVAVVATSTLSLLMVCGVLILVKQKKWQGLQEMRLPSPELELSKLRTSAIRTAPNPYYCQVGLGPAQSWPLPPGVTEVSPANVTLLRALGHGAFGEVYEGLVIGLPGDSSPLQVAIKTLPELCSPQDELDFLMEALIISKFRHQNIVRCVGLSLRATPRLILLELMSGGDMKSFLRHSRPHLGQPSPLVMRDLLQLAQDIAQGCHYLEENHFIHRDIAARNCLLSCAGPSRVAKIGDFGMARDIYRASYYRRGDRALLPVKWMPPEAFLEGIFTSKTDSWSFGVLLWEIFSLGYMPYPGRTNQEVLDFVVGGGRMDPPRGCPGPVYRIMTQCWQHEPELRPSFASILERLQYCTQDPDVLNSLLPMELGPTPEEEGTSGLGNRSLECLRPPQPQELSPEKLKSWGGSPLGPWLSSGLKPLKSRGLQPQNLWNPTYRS
T2 sequence (P28482 whole entry): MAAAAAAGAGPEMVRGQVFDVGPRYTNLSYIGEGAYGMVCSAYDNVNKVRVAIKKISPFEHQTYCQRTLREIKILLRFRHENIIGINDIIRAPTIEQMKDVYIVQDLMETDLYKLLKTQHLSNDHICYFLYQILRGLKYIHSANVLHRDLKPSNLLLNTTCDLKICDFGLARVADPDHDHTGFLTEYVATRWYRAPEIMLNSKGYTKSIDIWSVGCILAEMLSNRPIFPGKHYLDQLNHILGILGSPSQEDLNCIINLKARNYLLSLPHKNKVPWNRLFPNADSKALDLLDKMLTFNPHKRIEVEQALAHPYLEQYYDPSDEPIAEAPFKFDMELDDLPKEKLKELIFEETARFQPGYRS
Serine/threonine-protein kinase PLK4, sequence (O00444 whole entry): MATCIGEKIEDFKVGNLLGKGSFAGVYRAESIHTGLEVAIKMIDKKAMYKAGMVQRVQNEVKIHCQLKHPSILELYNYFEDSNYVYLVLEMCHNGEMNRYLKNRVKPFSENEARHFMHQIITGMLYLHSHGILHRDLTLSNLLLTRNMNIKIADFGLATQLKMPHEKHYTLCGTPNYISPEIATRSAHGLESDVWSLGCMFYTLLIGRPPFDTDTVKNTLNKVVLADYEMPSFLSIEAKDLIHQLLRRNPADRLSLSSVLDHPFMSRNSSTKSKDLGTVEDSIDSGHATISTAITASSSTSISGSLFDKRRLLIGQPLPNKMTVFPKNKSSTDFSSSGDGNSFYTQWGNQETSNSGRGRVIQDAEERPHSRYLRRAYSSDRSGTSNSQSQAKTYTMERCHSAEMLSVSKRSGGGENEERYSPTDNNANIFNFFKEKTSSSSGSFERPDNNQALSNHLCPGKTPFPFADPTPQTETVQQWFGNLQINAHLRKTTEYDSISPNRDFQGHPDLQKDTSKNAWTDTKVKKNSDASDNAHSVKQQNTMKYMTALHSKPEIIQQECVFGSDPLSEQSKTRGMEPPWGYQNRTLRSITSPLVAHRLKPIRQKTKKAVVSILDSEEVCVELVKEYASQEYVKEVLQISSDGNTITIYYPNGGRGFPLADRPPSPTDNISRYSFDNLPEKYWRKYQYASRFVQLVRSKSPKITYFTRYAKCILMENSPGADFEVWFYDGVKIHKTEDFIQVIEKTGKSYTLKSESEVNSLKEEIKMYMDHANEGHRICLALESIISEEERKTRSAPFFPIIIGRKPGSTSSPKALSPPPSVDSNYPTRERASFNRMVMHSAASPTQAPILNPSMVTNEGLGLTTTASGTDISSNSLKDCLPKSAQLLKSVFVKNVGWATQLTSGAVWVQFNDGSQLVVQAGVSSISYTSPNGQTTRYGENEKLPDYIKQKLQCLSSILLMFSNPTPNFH

One may read the pIC50 as −log10 of the IC50, conventionally taken in molar units. As to `COc1cc(N2CCC(O)CC2)ccc1Nc1cc(Nc2ccccc2S(=O)(=O)C(C)C)c2cc[nH]c2n1`, the % of control stood at 0.5% in assay [1]; 7.3% in assay [2]; 6% in assay [4]; 5.2% in [6]; 5.4% in assay [7]; 6.2% in [9]. In addition, the % of control in [11] came out at 8.9%; in [13] it was 1.2%; in assay [15] it was 0.5%; in assay [17], 0.9%; at Insulin receptor [19] it was 0.15%; in assay [21] it was 2%. In assay [23], this compound yielded a % of control of 0.1%. The pIC50 in assay [3] is 5.72; in assay [5] it was 5.54; in assay [8] it was 5.96; against Activated CDC42 kinase 1, 5.51; in assay [10] it was 5.59; in assay [12] it was 7.68. In addition, the negative-log IC50 (pIC50) was 7.54 in assay [14]; 6.36 on Focal adhesion kinase 1; 6.55 in [16]; 6.12 in assay [18]; 6.33 against Insulin receptor [20]; 5.92 in [22].
On to `CCOc1cc(N2CCC(O)CC2)ccc1Nc1ncc2c(n1)N(C1CCCC1)CCC(=O)N2C`, for which the pIC50 is 5.30 in assay [24]; 6.85 in assay [25]; 7.21 in assay [26]; 5.80 in [27]; 5.51 in assay [28].
